Measurements published in paper PMC13422867, “An orally available PfPKG inhibitor blocks Plasmodium’s infection of the liver” (PLOS Pathogens, 2026).

Experiments:
P. falciparum 7G8 = assay: Asexual blood stage growth inhibition, SYBR Green I, 72 h; assay type: cell-based; conditions: Plasmodium falciparum, mean (standard error) of 3 biological replicates
Experimental: (§1) Asexual blood stage P. falciparum strains, including 3D7 and drug-resistant field isolates, were cultured using standard conditions in RPMI 1640 with 0.5% Albumax as described previously. EC₅₀ values were determined using a SYBR Green I fluorescence assay after 72 h of compound exposure. EC50 values were derived by nonlinear regression in GraphPad Prism version 10.

P. falciparum K1 = assay: as above; assay type: cell-based; conditions: Plasmodium falciparum, mean (standard error) of 3 biological replicates
Experimental: as §1

P. falciparum TM90_C2B = assay: as above; assay type: cell-based; conditions: Plasmodium falciparum, mean (standard error) of 3 biological replicates
Experimental: as §1

P. cynomolgi hypnozoite = assay: Hypnozoite formation in primary simian hepatocytes, high-content imaging; assay type: cell-based, Plasmodium cynomolgi; conditions: Plasmodium cynomolgi, Hepatocyte
Experimental: (§2) Liver stage antimalarial activity was evaluated using sporozoites from P. falciparum (NF54 strain) and P. cynomolgi bastianellii (B strain). P. falciparum-infected Anopheles stephensi mosquitoes were reared at WRAIR, while P. cynomolgi-infected Anopheles dirus mosquitoes were obtained from the Armed Forces Research Institute of Medical Sciences (AFRIMS), Thailand. Sporozoites were isolated by dissecting salivary glands under sterile conditions, followed by gentle mechanical disruption. Freshly isolated sporozoites were immediately used for hepatocyte infection.
(§3) Primary cryopreserved hepatocytes were selected based on host-parasite compatibility: primary simian hepatocytes (lot OQB) for P. cynomolgi and human hepatocytes (lot BGW) for P. falciparum (BioIVT Inc., Baltimore, MD, USA). Cells were thawed according to the manufacturer’s protocol and seeded into 384-well collagen-coated assay plates (Greiner Bio-One, Monroe, NC, USA) using InVitroGro CP plating medium (BioIVT). Seeding densities were optimized for uniform monolayer formation, and hepatocytes were allowed to adhere for 24–48 hours before infection. Sporozoites were added at a 1:1.1 hepatocyte-to-sporozoite ratio within 48 hours post-seeding. Automated robotic systems were used for media changes and compound additions to ensure assay consistency and minimize variability associated with manual pipetting.
(§4) Test compounds (PfPKG inhibitors) and assay drug controls (KDU-691 and tafenoquine) were solubilized in DMSO or PBS and serially diluted into 8- or 12-point, 2- or 3-fold series, achieving final assay concentrations ranging from 20 µM to 0.019 µM. Compounds were introduced using a calibrated pin tool controlled by robotic arms (V&P Scientific), ensuring a 1:1000 dilution into assay wells. Media were replenished daily with fresh drug-containing HCM. […]
(§5) Cells were fixed using 4% paraformaldehyde for 20 minutes at room temperature, followed by three PBS washes, and stored at 4°C until further processing. Parasite detection was performed using species-specific primary antibodies, with P. cynomolgi parasites labeled using a mouse monoclonal anti-Plasmodium GAPDH antibody (1.6 μg/mL, European Malaria Reagent Repository) and P. falciparum parasites detected using a rabbit polyclonal anti-PfHSP70 antibody (1:70 dilution, LS Bio, USA). […]
(§6) High-content imaging was performed using the Operetta CLS system (Revvity) and image analysis was performed with Harmony software version 4.9 (Revvity, Waltham, MA, USA). Images were acquired at 10x or 20x magnification using DAPI and TRITC fluorescence channels. Following the established protocol, parasites were classified as hypnozoites or schizonts based on fluorescence intensity (mean and maximum), morphological features (cell roundness and size), and segmentation criteria. […]

P. cynomolgi schizont = assay: Schizont formation in primary simian hepatocytes, high-content imaging; assay type: cell-based, Plasmodium cynomolgi; conditions: Plasmodium cynomolgi, Hepatocyte
Experimental: as §2, §3, §4, §5, §6

[1] = system: P. berghei sporozoites (PbLuc-GFP); assay: In vivo chemoprotective efficacy against sporozoite liver infection; set-up: species or system Plasmodium berghei in mice; conditions: 10 mg/kg x 3; for Prepatent period mean ± sd: blood stages by flow cytometry
Experimental: In the first experiment, mice were administered three doses, intravenously (IV) or orally (PO), of compound (10 mg/kg) - two prior to sporozoite inoculation to block sporozoite invasion of hepatocytes and the third at 36 hpi to prevent egress of liver stages (Fig 3A). In vivo bioluminescent imaging (IVIS) of mice was utilized to detect and quantify relative parasitemia in the liver and flow cytometry was used to detect the appearance of blood stage parasites. Vehicle-treated mice were used as a negative control.
In vivo chemoprotective efficacy was evaluated using luciferase-expressing P. berghei ANKA sporozoites. […] Liver stage parasite burden was measured 42–48 h p.i. by bioluminescence imaging (IVIS Spectrum). Photon flux from the liver region was quantified using Living Image software. All animal procedures were approved by the Rutgers Institutional Animal Care and Use Committee (IACUC).

CIT = target: T1, CIT (Homo sapiens, UniProt O14578); assay: DiscoverX scanMAX competition binding at 1 µM; conditions: 1 μM compound
T1 construct: purchased Eurofins (DiscoverX)
Experimental: (§7) A major issue affecting the further development of RUPB-61 is its human-kinome selectivity. To identify its significant off-target liabilities, we quantified its binding affinity for 400 unique human kinases (S4 Fig). The screen consists of binding competitions between the test compound and control ligands for each of the target human kinases.
(§8) Off-target kinase inhibition was assessed using the DiscoverX scanMAX (Eurofins) panel at 1 µM compound concentration. Binding affinities of CIT, ROCK1 and ROCK2 were evaluated using the KdElect assay (Eurofins).

ROCK1 = target: T2, ROCK1 (Homo sapiens, UniProt Q13464); assay: DiscoverX scanMAX competition binding at 1 µM; conditions: 1 μM compound
T2 construct: purchased Eurofins (DiscoverX)
Experimental: as §7, §8

ROCK2 = target: T3, ROCK2 (Homo sapiens, UniProt O75116); assay: DiscoverX scanMAX competition binding at 1 µM; conditions: 1 μM compound
T3 construct: purchased Eurofins (DiscoverX)
Experimental: as §7, §8

PfPKG = conditions: cited from earlier work
[2] = system: mutant P. falciparum parasites carrying a Thr618Gln substitution; conditions: cited from earlier work
hERG = conditions: in vitro; cited from earlier work
[3] = in vitro; cited from earlier work
[4] = system: P. falciparum CamWT and CamC580Y; conditions: ring-stage assays; cited from earlier work
[5] = system: P. berghei sporozoites infecting HepG2 cells; conditions: cited from earlier work

T1 sequence (O14578 whole entry): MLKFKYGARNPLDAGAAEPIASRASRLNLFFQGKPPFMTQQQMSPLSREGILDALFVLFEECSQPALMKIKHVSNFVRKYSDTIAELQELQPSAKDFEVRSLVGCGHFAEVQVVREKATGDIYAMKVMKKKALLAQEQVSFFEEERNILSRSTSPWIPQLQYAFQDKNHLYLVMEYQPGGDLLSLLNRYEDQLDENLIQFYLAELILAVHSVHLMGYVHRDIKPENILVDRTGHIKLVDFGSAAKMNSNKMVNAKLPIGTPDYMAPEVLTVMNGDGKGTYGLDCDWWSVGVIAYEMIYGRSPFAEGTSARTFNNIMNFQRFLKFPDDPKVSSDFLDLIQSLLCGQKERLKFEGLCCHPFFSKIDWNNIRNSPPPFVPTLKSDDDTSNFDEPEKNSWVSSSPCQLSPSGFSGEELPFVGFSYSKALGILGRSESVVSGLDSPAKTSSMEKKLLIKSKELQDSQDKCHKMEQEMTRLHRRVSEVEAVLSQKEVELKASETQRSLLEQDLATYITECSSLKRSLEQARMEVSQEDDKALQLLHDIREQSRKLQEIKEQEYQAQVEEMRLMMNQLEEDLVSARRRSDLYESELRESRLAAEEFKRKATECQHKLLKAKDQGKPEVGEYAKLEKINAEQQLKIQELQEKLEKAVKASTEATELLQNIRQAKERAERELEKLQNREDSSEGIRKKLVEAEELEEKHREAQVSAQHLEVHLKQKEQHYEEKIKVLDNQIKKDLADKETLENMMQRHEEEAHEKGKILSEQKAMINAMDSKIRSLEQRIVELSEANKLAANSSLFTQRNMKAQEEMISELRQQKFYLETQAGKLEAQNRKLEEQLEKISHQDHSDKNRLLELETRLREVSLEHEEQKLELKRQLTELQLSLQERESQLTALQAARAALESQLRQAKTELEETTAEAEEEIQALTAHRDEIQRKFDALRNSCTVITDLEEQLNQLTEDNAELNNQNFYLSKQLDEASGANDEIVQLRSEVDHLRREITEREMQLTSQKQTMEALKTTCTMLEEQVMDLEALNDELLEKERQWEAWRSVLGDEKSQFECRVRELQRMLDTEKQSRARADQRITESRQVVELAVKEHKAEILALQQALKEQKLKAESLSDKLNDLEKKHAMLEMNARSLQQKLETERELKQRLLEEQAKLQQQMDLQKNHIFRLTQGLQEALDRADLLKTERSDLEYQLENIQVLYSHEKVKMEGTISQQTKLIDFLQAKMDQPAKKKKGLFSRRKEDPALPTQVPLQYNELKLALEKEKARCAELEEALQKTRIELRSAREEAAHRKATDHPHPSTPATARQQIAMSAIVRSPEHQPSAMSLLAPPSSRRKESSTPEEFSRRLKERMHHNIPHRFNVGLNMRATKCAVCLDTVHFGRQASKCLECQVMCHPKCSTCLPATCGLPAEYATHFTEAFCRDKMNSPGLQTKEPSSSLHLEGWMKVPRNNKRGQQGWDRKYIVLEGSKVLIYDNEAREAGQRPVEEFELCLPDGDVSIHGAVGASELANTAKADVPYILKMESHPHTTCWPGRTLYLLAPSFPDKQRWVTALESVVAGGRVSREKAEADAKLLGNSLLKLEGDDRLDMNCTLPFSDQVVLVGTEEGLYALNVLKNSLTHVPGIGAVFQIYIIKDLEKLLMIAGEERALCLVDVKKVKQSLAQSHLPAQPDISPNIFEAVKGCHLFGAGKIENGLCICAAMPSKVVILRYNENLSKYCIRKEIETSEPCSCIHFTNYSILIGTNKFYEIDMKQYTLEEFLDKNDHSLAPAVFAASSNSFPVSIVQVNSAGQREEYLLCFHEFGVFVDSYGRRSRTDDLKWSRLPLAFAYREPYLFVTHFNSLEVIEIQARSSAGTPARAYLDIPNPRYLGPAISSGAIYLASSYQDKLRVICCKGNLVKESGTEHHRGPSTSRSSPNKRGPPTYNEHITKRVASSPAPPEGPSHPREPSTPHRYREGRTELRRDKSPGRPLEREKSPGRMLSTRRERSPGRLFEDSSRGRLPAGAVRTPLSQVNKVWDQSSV
T3 sequence (O75116 whole entry): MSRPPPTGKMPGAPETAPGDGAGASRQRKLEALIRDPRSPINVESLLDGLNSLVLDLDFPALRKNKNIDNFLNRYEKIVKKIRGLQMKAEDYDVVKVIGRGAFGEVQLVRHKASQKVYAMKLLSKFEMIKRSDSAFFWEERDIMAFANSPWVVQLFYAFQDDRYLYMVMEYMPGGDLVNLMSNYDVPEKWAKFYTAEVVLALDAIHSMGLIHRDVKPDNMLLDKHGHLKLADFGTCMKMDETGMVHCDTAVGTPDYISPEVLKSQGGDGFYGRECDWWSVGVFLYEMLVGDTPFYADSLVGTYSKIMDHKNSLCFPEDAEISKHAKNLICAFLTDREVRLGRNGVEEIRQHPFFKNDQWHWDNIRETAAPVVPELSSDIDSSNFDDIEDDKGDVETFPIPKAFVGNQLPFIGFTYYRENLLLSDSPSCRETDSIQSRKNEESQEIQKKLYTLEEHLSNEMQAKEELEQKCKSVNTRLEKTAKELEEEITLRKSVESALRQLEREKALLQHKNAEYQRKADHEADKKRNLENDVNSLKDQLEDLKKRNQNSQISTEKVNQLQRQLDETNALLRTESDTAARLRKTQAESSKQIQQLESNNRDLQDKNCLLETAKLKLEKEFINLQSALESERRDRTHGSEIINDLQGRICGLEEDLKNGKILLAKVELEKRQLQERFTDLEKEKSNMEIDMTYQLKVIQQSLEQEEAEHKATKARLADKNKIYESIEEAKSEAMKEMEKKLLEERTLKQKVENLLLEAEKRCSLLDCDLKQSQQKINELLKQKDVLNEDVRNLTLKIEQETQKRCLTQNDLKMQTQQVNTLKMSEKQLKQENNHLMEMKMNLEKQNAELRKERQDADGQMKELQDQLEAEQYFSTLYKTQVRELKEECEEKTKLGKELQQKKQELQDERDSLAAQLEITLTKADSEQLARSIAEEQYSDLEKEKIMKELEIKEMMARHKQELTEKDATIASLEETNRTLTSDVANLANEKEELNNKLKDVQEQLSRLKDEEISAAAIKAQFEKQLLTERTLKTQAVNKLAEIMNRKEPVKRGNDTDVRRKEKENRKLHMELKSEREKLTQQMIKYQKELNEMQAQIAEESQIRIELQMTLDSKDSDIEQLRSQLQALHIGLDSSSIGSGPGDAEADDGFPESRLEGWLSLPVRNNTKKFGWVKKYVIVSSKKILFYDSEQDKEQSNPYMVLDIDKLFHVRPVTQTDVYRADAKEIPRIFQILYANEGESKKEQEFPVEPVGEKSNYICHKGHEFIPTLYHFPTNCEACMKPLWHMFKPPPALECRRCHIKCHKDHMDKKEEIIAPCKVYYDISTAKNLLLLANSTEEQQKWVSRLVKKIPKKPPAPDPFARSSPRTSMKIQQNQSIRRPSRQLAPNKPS
T2 sequence (Q13464 whole entry): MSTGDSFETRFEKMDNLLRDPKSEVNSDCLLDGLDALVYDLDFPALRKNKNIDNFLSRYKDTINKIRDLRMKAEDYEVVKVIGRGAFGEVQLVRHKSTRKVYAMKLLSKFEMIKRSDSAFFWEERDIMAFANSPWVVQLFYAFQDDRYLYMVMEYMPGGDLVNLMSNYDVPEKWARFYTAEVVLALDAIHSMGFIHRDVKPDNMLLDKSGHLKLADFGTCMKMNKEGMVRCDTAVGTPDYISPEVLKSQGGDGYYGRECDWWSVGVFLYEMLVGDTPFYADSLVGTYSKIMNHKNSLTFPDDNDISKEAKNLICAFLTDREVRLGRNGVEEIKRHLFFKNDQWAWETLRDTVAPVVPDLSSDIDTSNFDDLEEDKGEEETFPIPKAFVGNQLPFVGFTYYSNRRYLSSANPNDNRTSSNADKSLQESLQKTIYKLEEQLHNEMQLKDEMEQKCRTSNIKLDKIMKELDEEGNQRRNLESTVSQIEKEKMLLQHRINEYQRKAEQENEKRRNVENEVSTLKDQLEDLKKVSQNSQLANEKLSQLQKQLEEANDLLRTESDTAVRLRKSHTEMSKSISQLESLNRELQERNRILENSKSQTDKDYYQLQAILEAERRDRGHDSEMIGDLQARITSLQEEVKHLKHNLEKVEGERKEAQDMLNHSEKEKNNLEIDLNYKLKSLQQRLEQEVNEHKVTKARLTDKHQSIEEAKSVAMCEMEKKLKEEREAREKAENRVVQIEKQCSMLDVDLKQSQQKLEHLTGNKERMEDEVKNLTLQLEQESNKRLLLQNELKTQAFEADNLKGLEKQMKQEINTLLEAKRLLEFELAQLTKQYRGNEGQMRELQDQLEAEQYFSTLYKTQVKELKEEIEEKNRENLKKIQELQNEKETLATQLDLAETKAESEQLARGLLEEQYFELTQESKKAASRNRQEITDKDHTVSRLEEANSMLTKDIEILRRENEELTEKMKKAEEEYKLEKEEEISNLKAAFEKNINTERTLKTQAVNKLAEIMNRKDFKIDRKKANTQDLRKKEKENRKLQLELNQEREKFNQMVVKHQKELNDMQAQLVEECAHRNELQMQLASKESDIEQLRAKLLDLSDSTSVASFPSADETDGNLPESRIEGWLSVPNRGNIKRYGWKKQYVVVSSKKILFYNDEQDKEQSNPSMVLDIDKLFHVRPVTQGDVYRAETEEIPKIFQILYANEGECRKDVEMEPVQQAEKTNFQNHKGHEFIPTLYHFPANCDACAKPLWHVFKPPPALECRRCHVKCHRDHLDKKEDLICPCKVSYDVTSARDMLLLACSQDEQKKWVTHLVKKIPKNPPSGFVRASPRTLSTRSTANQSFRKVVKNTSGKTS

Q: With C[C@@H]1CN(C)CC[C@@H]1c1cc(-c2ccncc2)c(-c2ccc(F)cc2)[nH]1.Cl.Cl [RUPB-61, 4-{5-[(3S,4S)-1,3-Dimethylpiperidin-4-yl]-2-(4-fluorophenyl)-1H-pyrrol-3-yl}pyridine Dihydrochloride] as the compound, how does the IC50 (P. falciparum 7G8) read?
A: 0.029 µM

Q: What about the IC50 (P. falciparum K1) of the same compound?
A: 0.042 µM

Q: And the IC50 (P. falciparum TM90_C2B)?
A: 0.139 µM

Q: What about the IC50 (P. cynomolgi hypnozoite) of the same compound?
A: 0.19 µM

Q: And the IC50 (P. cynomolgi schizont)?
A: 0.17 µM

Q: What about the “mice showing liver parasitemia as late as 144 hpi” value ([1]; IV or PO, 10 mice, bioluminescent imaging) of the same compound?
A: none

Q: What about the “mice displaying blood stage parasites in the 3 week observation period” value ([1]; IV or oral) of the same compound?
A: none

Q: What about the “No. of mice patent by D21/ No. of mice inoculated” value ([1]; Intravenous) of the same compound?
A: 0/5

Q: What about the “Prepatent period mean ± sd” value ([1]; Intravenous) of the same compound?
A: negative

Q: And the “No. of mice patent by D21/ No. of mice inoculated” value ([1]; Oral)?
A: 0/5

Q: What about the “Prepatent period mean ± sd” value ([1]; Oral) of the same compound?
A: negative

Q: What about the “displacement of control ligand for CIT” value (CIT) of the same compound?
A: > 99%

Q: And the “displacement of control ligand for ROCK1” value (ROCK1)?
A: > 99%

Q: And the “displacement of control ligand for ROCK2” value (ROCK2)?
A: > 99%

Q: What about the “IC50 against PfPKG variants, RUPB-60 compared with RUPB-61” value (PfPKG) of the same compound?
A: similar

Q: What about the “increase in IC50 against Thr618Gln gatekeeper mutant parasites” value [2] of the same compound?
A: 15 fold

Q: And the “cardiovascular risk as judged by hERG inhibition” value (hERG)?
A: low preliminary cardiovascular risks

Q: And the first-pass metabolism [3]?
A: minimal

Q: What about the “IC50 against DHA-sensitive CamWT compared with DHA-resistant CamC580Y” value [4] of the same compound?
A: similar

Q: What about the “activity against P. berghei sporozoites infecting HepG2 cells” value [5] of the same compound?
A: active
